This note sets out measurements from patent US20100286145A1, “ISOPHTHALAMIDE DERIVATIVES INHIBITING BETA-SECRETASE ACTIVITY” (CoMentis, Inc., priority 2007, published 2010).

Experiment [1] addresses memapsin 2 (Homo sapiens, UniProt P56817). Nature of the experiment: Inhibition of memapsin 2 beta-secretase activity (fluorogenic substrate FS-2). The class given is biochemical. The following applies: memapsin 2, pH 4, 37° C., 20 minutes pre-incubation; read-out: M2Ki. Put shortly: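 Kinetic fluorogenic assay: hydrolysis of the MCA/DNP-labelled APP Swedish-variant peptide FS-2 monitored as fluorescence rise at 37° C, pH 4, after 20 min enzyme–compound preincubation. Relative rates fitted with a tight-binding inhibitor model.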

Experiment [2] has as its system Aβ production in Chinese hamster ovary cells that over-express human APP695 with the London and Swedish mutations. Nature of the experiment: Cellular Aβ IC50 determination (Aβ40 sandwich ELISA). As to conditions: Cricetulus griseus; cellular Aβ production; read-out: IC50. The experiment is classed as cell-based. On the procedure:
The potency of compounds against memapsin 2 activity was determined in a cellular assay of Aβ production. […] Chinese hamster ovary cells that over-express human APP695 with the London and Swedish mutations were seeded in multi-well plates at 10% confluency. Compounds are dissolved in DMSO to concentrations near 1 mM, and diluted into culture media to a final concentration near 4 μM (final 0.4% DMSO). […] Aliquots were removed and assayed for Aβ40 content using a sandwich ELISA (BioSource International). Amount of Aβ40 over the range of concentration of compounds, relative to control incubations, were fit to a 4-parameter IC50 model.

Sequence of memapsin 2 (P56817 46-501): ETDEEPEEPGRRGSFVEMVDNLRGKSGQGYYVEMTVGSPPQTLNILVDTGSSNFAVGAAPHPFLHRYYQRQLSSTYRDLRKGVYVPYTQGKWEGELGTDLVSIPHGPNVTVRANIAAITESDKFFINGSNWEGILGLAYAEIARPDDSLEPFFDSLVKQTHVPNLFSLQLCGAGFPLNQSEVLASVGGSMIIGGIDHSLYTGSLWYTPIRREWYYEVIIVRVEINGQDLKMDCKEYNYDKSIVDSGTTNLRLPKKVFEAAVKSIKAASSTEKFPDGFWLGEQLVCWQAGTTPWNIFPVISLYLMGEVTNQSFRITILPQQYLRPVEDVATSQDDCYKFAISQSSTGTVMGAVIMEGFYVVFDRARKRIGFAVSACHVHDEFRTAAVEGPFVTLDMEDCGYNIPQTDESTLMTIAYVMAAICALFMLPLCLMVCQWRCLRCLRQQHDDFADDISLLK

Take `Cc1csc(CN(C)C(=O)c2cccc(C(=O)N[C@@H](Cc3ccccc3)[C@H](O)CNCc3cc(C(C)C)ccn3)c2)n1` [Compound 5, N1-((2S,3R)-3-hydroxy-4-((4-isopropylpyridin-2-yl)methylamino)-1-phenylbutan-2-yl)-N3-methyl-N3-((4-methylthiazol-2-yl)methyl)isophthalamide]: the Ki in experiment [1] is under 300 nM. The half-inhibitory concentration (IC50) in experiment [2] was under 1000 nM.

With `COc1cccc(CNC[C@@H](O)[C@H](Cc2ccccc2)NC(=O)c2cccc(C(=O)N(C)Cc3ncc(C)s3)c2)c1` [Compound 6, N1-((2S,3R)-3-hydroxy-4-(3-methoxybenzylamino)-1-phenylbutan-2-yl)-N3-methyl-N3-((5-methylthiazol-2-yl)methyl)isophthalamide], in experiment [1], the Ki is over 501 nM. Moreover, the half-maximal inhibitory concentration (IC50) in experiment [2] is over 5000 nM.

For `COc1cccc(CNC[C@@H](O)[C@H](Cc2ccccc2)NC(=O)c2cc(C)cc(C(=O)N(Cc3nc(C)cs3)C3CC3)c2)c1` [Compound 9, N1-cyclopropyl-N3-((2S,3R)-3-hydroxy-4-(3-methoxybenzylamino)-1-phenylbutan-2-yl)-5-methyl-N1-((4-methylthiazol-2-yl)methyl)isophthalamide], the Ki in experiment [1] is under 300 nM. Also, the IC50 in experiment [2] is under 1000 nM.

Regarding `Cc1csc(CN(C)C(=O)c2cccc(C(=O)N[C@@H](Cc3ccccc3)[C@H](O)CNCc3cccc(C(C)C)n3)c2)n1` [Compound 10, N1-((2S,3R)-3-hydroxy-4-((6-isopropylpyridin-2-yl)methylamino)-1-phenylbutan-2-yl)-N3-methyl-N3-((4-methylthiazol-2-yl)methyl)isophthalamide], the Ki in experiment [1] was under 300 nM. In addition, in experiment [2], the IC50 was under 1000 nM.

Take `CCCN(Cc1nc(C)cs1)C(=O)c1cccc(C(=O)N[C@@H](Cc2ccccc2)[C@H](O)CNCc2cccc(OC)c2)c1` [Compound 11, N1-((2S,3R)-3-hydroxy-4-(3-methoxybenzylamino)-1-phenylbutan-2-yl)-N3-((4-methylthiazol-2-yl)methyl)-N3-propylisophthalamide]: the Ki in experiment [1] was under 300 nM. In addition, the 50% inhibitory concentration (IC50) in experiment [2] was under 1000 nM.

Regarding `Cc1csc(CN(C)C(=O)c2cccc(C(=O)N[C@@H](Cc3ccccc3)[C@H](O)CNCc3cccc(C4CC4)c3)c2)n1` [Compound 12, N1-((2S,3R)-4-(3-cyclopropylbenzylamino)-3-hydroxy-1-phenylbutan-2-yl)-N3-methyl-N3-((4-methylthiazol-2-yl)methyl)isophthalamide], the Ki in experiment [1] is under 300 nM. In addition, in experiment [2], the half-maximal inhibitory concentration (IC50) was under 1000 nM.

With `CCN(Cc1nc(C)cs1)C(=O)c1cc(OC)cc(C(=O)N[C@@H](Cc2ccccc2)[C@H](O)CNCc2cccc(OC)c2)c1` [Compound 16, N1-ethyl-N3-((2S,3R)-3-hydroxy-4-(3-methoxybenzylamino)-1-phenylbutan-2-yl)-5-methoxy-N1-((4-methylthiazol-2-yl)methyl)isophthalamide], in experiment [1], the Ki was under 300 nM. The IC50 in experiment [2] was under 1000 nM.

With `COc1cccc(CNC[C@@H](O)[C@H](Cc2ccccc2)NC(=O)c2cccc(C(=O)N(C)Cc3ccc(C)o3)c2)c1` [Compound 18, N1-((2S,3R)-3-hydroxy-4-(3-methoxybenzylamino)-1-phenylbutan-2-yl)-N3-methyl-N3-((5-methylfuran-2-yl)methyl)isophthalamide], in experiment [1], the Ki lay within 301 to 500 nM. For the same compound, the IC50 in experiment [2] is under 1000 nM.

As for `COc1cccc(CNC[C@@H](O)[C@H](Cc2ccccc2)NC(=O)c2cc(C(=O)O)cc(C(=O)N(C)Cc3nc(C)cs3)c2)c1` [Compound 19, 3-((2S,3R)-3-hydroxy-4-(3-methoxybenzylamino)-1-phenylbutan-2-ylcarbamoyl)-5-(methyl((4-methylthiazol-2-yl)methyl)carbamoyl)benzoic acid], the Ki in experiment [1] is under 300 nM. For the same compound, the IC50 in experiment [2] is under 1000 nM.

As for `C=C(C)c1cncc(CNC[C@@H](O)[C@H](Cc2ccccc2)NC(=O)c2cccc(C(=O)N(C)Cc3nc(C)cs3)c2)c1` [Compound 22, N1-((2S,3R)-3-hydroxy-1-phenyl-4-((5-(prop-1-en-2-yl)pyridin-3-yl)methylamino)butan-2-yl)-N3-methyl-N3-((4-methylthiazol-2-yl)methyl)isophthalamide], the Ki in experiment [1] is under 300 nM. The IC50 in experiment [2] was under 1000 nM.

`Cc1csc(CN(C)C(=O)c2cccc(C(=O)N[C@@H](Cc3ccccc3)[C@H](O)CNCc3cncc(C(F)(F)F)c3)c2)n1` [Compound 23, N1-((2S,3R)-3-hydroxy-1-phenyl-4-((5-(trifluoromethyl)pyridin-3-yl)methylamino)butan-2-yl)-N3-methyl-N3-((4-methylthiazol-2-yl)methyl)isophthalamide]: the Ki in experiment [1] is under 300 nM. Besides, in experiment [2], the half-maximal inhibitory concentration (IC50) was under 1000 nM.

For `COc1cccc(CNC[C@@H](O)[C@H](Cc2ccccc2)NC(=O)c2cc(OC)cc(C(=O)N(Cc3nc(C)cs3)C(C)C)c2)c1` [Compound 25, N1-((2S,3R)-3-hydroxy-4-(3-methoxybenzylamino)-1-phenylbutan-2-yl)-N3-isopropyl-5-methoxy-N3-((4-methylthiazol-2-yl)methyl)isophthalamide], the Ki in experiment [1] was under 300 nM. Further, in experiment [2], the 50% inhibitory concentration (IC50) was under 1000 nM.

Turning to `Cc1csc(CN(C)C(=O)c2cccc(C(=O)N[C@@H](Cc3ccccc3)[C@H](O)CNCc3ccncc3)c2)n1` [Compound 26, N1-((2S,3R)-3-hydroxy-1-phenyl-4-(pyridin-4-ylmethylamino)butan-2-yl)-N3-methyl-N3-((4-methylthiazol-2-yl)methyl)isophthalamide], in experiment [1], the Ki was over 501 nM. The IC50 in experiment [2] is over 5000 nM.

On to `Cc1csc(CN(C)C(=O)c2cccc(C(=O)N[C@@H](Cc3ccccc3)[C@H](O)CNCc3cc(C(F)(F)F)cc(C(F)(F)F)c3)c2)n1` [Compound 27, N1-((2S,3R)-4-(3,5-bis(trifluoromethyl)benzylamino)-3-hydroxy-1-phenylbutan-2-yl)-N3-methyl-N3-((4-methylthiazol-2-yl)methyl)isophthalamide], for which, in experiment [1], the Ki is under 300 nM. The half-maximal inhibitory concentration (IC50) in experiment [2] is under 1000 nM.

For `Cc1csc(CN(C)C(=O)c2cccc(C(=O)N[C@@H](Cc3ccccc3)[C@H](O)CNCc3cc(F)cc(C(F)(F)F)c3)c2)n1` [Compound 28, N1-((2S,3R)-4-(3-fluoro-5-(trifluoromethyl)benzylamino)-3-hydroxy-1-phenylbutan-2-yl)-N3-methyl-N3-((4-methylthiazol-2-yl)methyl)isophthalamide], the Ki in experiment [1] is under 300 nM. The IC50 in experiment [2] was under 1000 nM.

Consider `Cc1csc(CN(C)C(=O)c2cccc(C(=O)N[C@@H](Cc3ccccc3)[C@H](O)CNCc3cncc(C4CC4)c3)c2)n1` [Compound 30, N1-((2S,3R)-4-((5-cyclopropylpyridin-3-yl)methylamino)-3-hydroxy-1-phenylbutan-2-yl)-N3-methyl-N3-((4-methylthiazol-2-yl)methyl)isophthalamide], for which, in experiment [1], the Ki was under 300 nM. The IC50 in experiment [2] is under 1000 nM.

For the compound `COc1cc(C(=O)N[C@@H](Cc2ccccc2)[C@H](O)CNCc2cccc(C(F)(F)F)c2)cc(C(=O)N(C)Cc2nc(C)cs2)c1` [Compound 31, N1-((2S,3R)-3-hydroxy-1-phenyl-4-(3-(trifluoromethyl)benzylamino)butan-2-yl)-5-methoxy-N3-methyl-N3-((4-methylthiazol-2-yl)methyl)isophthalamide], in experiment [1], the Ki is under 300 nM. Moreover, in experiment [2], the 50% inhibitory concentration (IC50) is under 1000 nM.

`COc1cccc(CNC[C@@H](O)[C@H](Cc2ccccc2)NC(=O)c2cc(N)cc(C(=O)N(C)Cc3nc(C)cs3)c2)c1` [Compound 34, 5-amino-N1-((2S,3R)-3-hydroxy-4-(3-methoxybenzylamino)-1-phenylbutan-2-yl)-N3-methyl-N3-((4-methylthiazol-2-yl)methyl)isophthalamide]: the Ki in experiment [1] was over 501 nM. Also, in experiment [2], the IC50 was 1000 to 5000 nM.

On to `COc1cccc(CNC[C@@H](O)[C@H](Cc2ccccc2)NC(=O)c2cc(C(=O)NCCO)cc(C(=O)N(C)Cc3nc(C)cs3)c2)c1` [Compound 44, N1-((2S,3R)-3-hydroxy-4-(3-methoxybenzylamino)-1-phenylbutan-2-yl)-N3-(2-hydroxyethyl)-N5-methyl-N5-((4-methylthiazol-2-yl)methyl)benzene-1,3,5-tricarboxamide], for which the Ki in experiment [1] was under 300 nM. For the same compound, the IC50 in experiment [2] was under 1000 nM.

In the case of `Cc1csc(CN(C)C(=O)c2cccc(C(=O)N[C@@H](Cc3ccccc3)[C@H](O)CNCc3cncc(N(C)C)c3)c2)n1` [Compound 47, N1-((2S,3R)-4-((5-(dimethylamino)pyridin-3-yl)methylamino)-3-hydroxy-1-phenylbutan-2-yl)-N3-methyl-N3-((4-methylthiazol-2-yl)methyl)isophthalamide], the Ki in experiment [1] was under 300 nM. In addition, in experiment [2], the concentration for half-maximal inhibition (IC50) is under 1000 nM.

As to `COc1cccc(CNC[C@@H](O)[C@H](Cc2ccccc2)NC(=O)c2cc(CO)cc(C(=O)N(C)Cc3nc(C)cs3)c2)c1` [Compound 49, N1-((2S,3R)-3-hydroxy-4-(3-methoxybenzylamino)-1-phenylbutan-2-yl)-5-(hydroxymethyl)-N3-methyl-N3-((4-methylthiazol-2-yl)methyl)isophthalamide], the Ki in experiment [1] was under 300 nM. In experiment [2], the IC50 was under 1000 nM.

Regarding `COc1cccc(F)c1CNC[C@@H](O)[C@H](Cc1ccccc1)NC(=O)c1cccc(C(=O)N(C)Cc2nc(C)cs2)c1` [Compound 50, N1-((2S,3R)-4-(2-fluoro-6-methoxybenzylamino)-3-hydroxy-1-phenylbutan-2-yl)-N3-methyl-N3-((4-methylthiazol-2-yl)methyl)isophthalamide], the Ki in experiment [1] is under 300 nM. Besides, the half-inhibitory concentration (IC50) in experiment [2] was under 1000 nM.
